From PubChem BioAssay (NCI)
Values joined by “and” are separate entries in the source; they are usually repeats but may differ in a detail not shown here. Equal values may be shown once.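 In this assay, cells in 96-well plates receive the compound at five concentrations for 48 hours. Endpoints are linearly interpolated between the surrounding concentrations. GI50 marks 50% less growth. The concentration for full growth arrest is given as TGI.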

Assays:
Test in all cases: NCI-60 cell line screen, 48 h
[1] = system: SK-MEL-5 melanoma
[2] = system: HL-60(TB) leukemia
[3] = system: UACC-257 melanoma
[4] = system: DU-145 prostate
[5] = system: SF-539 CNS
[6] = system: ACHN renal
[7] = system: RXF 393 renal
[8] = system: OVCAR-5 ovarian
[9] = system: MOLT-4 leukemia
[10] = system: MCF7 breast

SMILES	GI50 [1]	TGI [1]	GI50 [2] [µM]	TGI [2] [µM]	GI50 [3]	TGI [3]	GI50 [4]	TGI [4]	GI50 [5]	TGI [5]	GI50 [6]	TGI [6]	GI50 [7]	TGI [7] [µM]	GI50 [8]	TGI [8]	GI50 [9]	TGI [9]	GI50 [10]	TGI [10]
CC1(C)N=C(N)N=C(N)N1c1ccc(OCCCCNC(=O)Nc2cccc(S(=O)(=O)F)c2)c(Cl)c1	1.11 µM	23.7 µM	0.61	> 100	3.73 µM	> 100 µM	3.83 µM	> 100 µM	1.27 µM	8.5 µM	22.3 µM	> 100 µM	0.735 µM	> 100	2.26 µM	> 100 µM	4.08 µM	> 100 µM	2.09 µM	> 100 µM
Oc1c(I)cc(Cl)c2cccnc12	1.83 µM and 4.12 µM	4.23 µM and 16.1 µM	2.77	6.22	3.61 µM and 24.5 µM	83.5 µM and 71.5 µM	5.9 µM and 21.2 µM	> 100 µM and 50.6 µM	3.31 µM and 24.3 µM	13.7 µM and 52.6 µM	3.52 µM and 3.5 µM	21.7 µM and 23.7 µM	2.27 µM and 16.8 µM	–	6.43 µM and 13.2 µM	73.5 µM and 49.6 µM	3.37 µM and 3.12 µM	9.93 µM and 21.4 µM	3.24 µM and 6.36 µM	41.3 µM and > 100 µM
CCN(CCNc1ccc(C)c2sc3cc(Cl)ccc3c(=O)c12)CC(C)(C)O	1.83 µM	3.49 µM	12.2	44.7	2.03 µM	4.37 µM	13.1 µM	40.6 µM	5.54 µM	24 µM	12.7 µM	65 µM	2.3 µM	5.4	10.5 µM	27.7 µM	15.5 µM	73.7 µM	11.7 µM	26.9 µM
Cc1cc2c(cc1C)[n+](=O)c(C(=O)/C=C/c1ccccc1[N+](=O)[O-])c(C)n2[O-]	–	> 100 µM	–	> 100	–	> 100 µM	–	> 100 µM	–	47.2 µM	–	66.9 µM	–	46.2	–	> 100 µM	–	> 100 µM	–	> 46.4 µM
C=CC[PH+](c1ccccc1)c1ccccc1.C=CC[PH+](c1ccccc1)c1ccccc1.[Pt+2].[S-]c1ncccn1.[S-]c1ncccn1	17.3 µM	38.5 µM	7.95	90.2	11.6 µM	37.2 µM	23.9 µM	> 100 µM	21.4 µM	52.3 µM	2.14 µM	5.31 µM	4.67 µM	18.3	15.1 µM	34.6 µM	3.26 µM	> 100 µM	4.8 µM	> 100 µM
Cc1ccccc1CNc1c2ccccc2nc2ccccc12	1.69 µM	3.05 µM	2.17	5.06	2.2 µM	5.23 µM	2.91 µM	10.1 µM	1.84 µM	4 µM	1.65 µM	3.66 µM	1.63 µM	3.14	2.08 µM	7.57 µM	2.67 µM	8.14 µM	1.84 µM	4.78 µM
CCc1ccc(C2=NN(c3ccc(S(C)(=O)=O)cc3)C(=O)CC2)cc1	1.64 µM	11.1 µM	1.2	6.35	1.68 µM	55.3 µM	2.67 µM	> 26.8 µM	2.3 µM	11 µM	8.48 µM	> 100 µM	2.05 µM	15.4	6.47 µM	> 100 µM	1.53 µM	17.5 µM	3.04 µM	> 91.6 µM
O=C1C2C(C(=O)N1CC[Se][Se]CCN1C(=O)C3C(C1=O)[C@H]1C=C[C@@H]3C1)[C@H]1C=C[C@@H]2C1 (some centres undefined)	1.67 µM	3.7 µM	0.209	0.477	0.452 µM	3.14 µM	0.555 µM	2.86 µM	0.223 µM	0.467 µM	0.408 µM	2.21 µM	0.338 µM	1.11	1.48 µM	5.58 µM	0.41 µM	6.68 µM	0.332 µM	4.01 µM
Cc1n(Cc2ccc3ccccc3n2)cc[n+]1Cc1ccc2ccccc2c1	0.533 µM	1.61 µM	0.344	1.46	0.506 µM	2.89 µM	2.08 µM	14.8 µM	0.579 µM	8.76 µM	9.46 µM	46.4 µM	3.59 µM	17.4	1.67 µM	13 µM	0.948 µM	10.6 µM	0.526 µM	6.08 µM
CCN(CC)CCS(=O)(=O)CCNc1ccnc2cc(Cl)ccc12	3.79 µM	10.4 µM	1.37	20	5.13 µM	26.1 µM	2.43 µM	> 32.8 µM	2.93 µM	14.3 µM	1.49 µM	29.8 µM	1.32 µM	5.8	3.97 µM	> 100 µM	1.34 µM	49 µM	1.86 µM	> 33.8 µM
CC(C)CCCC(C)[C@H]1CCC2[C@@H]3CCC4Cc5nc6c(nc5C[C@]4(C)C3CC[C@@]21C)CC1CC[C@@H]2C(CC[C@@]3(C)C2CC[C@@H]3O)[C@@]1(C)C6 (some centres undefined)	–	> 100 µM	–	> 100	–	> 100 µM	–	> 100 µM	–	> 100 µM	–	> 100 µM	–	> 100	–	> 100 µM	–	> 100 µM	–	> 100 µM
O=c1c2ccccc2n2cnc3ccc(NCCNCCO)c1c32	–	5.4 µM	–	18.5	–	13.2 µM	–	3.31 µM	–	15.8 µM	–	7.42 µM	–	4.65	–	5.84 µM	–	10.3 µM	–	9.62 µM
